Experimental data published in patent US7642245B2, “Antibacterial compounds having a (pyrrole carboxamide)-(benzamide)-(imidazole carboxamide) motif” (Oscient Pharmaceuticals Corporation, priority 2002, dated 2010).

What was measured:
[1] = test system: S. aureus ATCC 13709; test: MIC, NCCLS broth microdilution; format: cell-based, Staphylococcus aureus; conditions: A = S. aureus ATCC 13709 (MSSA)
From the text: (§1) In vitro biological activity data were collected for a variety of microorganisms, including Staphylococcus aureus (ATCC 27660, a methicillin resistant strain (MRSA); ATCC 13709, a methicillin sensitive strain (MSSA)), Enterococcus faecalis (ATCC 29212), Bacillus cereus (ATCC 11778), Streptococcus pneumoniae (ATCC 49619), Candida albicans (ATCC 38247), Escherichia coli (ATCC 25922), and Moraxella (now Branhamella) catarrhalis (ATCC 25238).
(§2) The minimal inhibition concentration (MIC) of these compounds was determined using the National Committee for Clinical Laboratory Standards (NCCLS) broth microdilution assay in microtiter plates, as set forth in: (1) the guidelines of the National Committee for Clinical Laboratory Standards (NCCLS) Document M7-A4 (NCCLS, 1997); (2) the guidelines of the National Committee for Clinical Laboratory Standards (NCCLS) Document M11-A4 (NCCLS, 1997); and (3) the guidelines and reference method of the National Committee for Clinical Laboratory Standards (NCCLS) Document M27-T (NCCLS, 1995). For antifungal assays, the method recommended in Murray, P R., 1995 Manual of Clinical Microbiology (ASM Press, Washington, DC.), was employed.

[2] = test system: S. aureus ATCC 27660; test: MIC, NCCLS broth microdilution; format: cell-based, Staphylococcus aureus; conditions: B = S. aureus ATCC 27660 (MRSA)
From the text: as §1, §2

[3] = test system: E. faecalis ATCC 29212; test: MIC, NCCLS broth microdilution; format: cell-based, Enterococcus faecalis; conditions: C = E. faecalis ATCC 29212
From the text: as §1, §2

[4] = test system: B. cereus ATCC 11778; test: MIC, NCCLS broth microdilution; format: cell-based, Bacillus cereus; conditions: D = B. cereus ATCC 11778
From the text: as §1, §2

[5] = test system: S. pneumoniae ATCC 49619; test: MIC, NCCLS broth microdilution; format: cell-based, Streptococcus pneumoniae; conditions: E = S. pneumoniae ATCC 49619
From the text: as §1, §2

[6] = test system: C. albicans ATCC 38247; test: MIC, antifungal assay; format: cell-based, Candida albicans; conditions: F = C. albicans ATCC 38247
From the text: as §1, §2

[7] = test system: E. coli ATCC 25922; test: MIC, NCCLS broth microdilution; format: cell-based, Escherichia coli; conditions: G = E. coli ATCC 25922
From the text: as §1, §2

[8] = test system: M. catarrhalis (ATCC 25238); test: MIC, NCCLS broth microdilution; format: cell-based, Moraxella (now Branhamella) catarrhalis; conditions: H = M. catarrhalis (ATCC 25238)
From the text: as §1, §2

Row | Minimum Inhibitory Concentration (MIC) [1] | Minimum Inhibitory Concentration (MIC) [2] | Minimum Inhibitory Concentration (MIC) [3] | Minimum Inhibitory Concentration (MIC) [4] | Minimum Inhibitory Concentration (MIC) [5] | Minimum Inhibitory Concentration (MIC) [6] [mg/L] | Minimum Inhibitory Concentration (MIC) [7] | Minimum Inhibitory Concentration (MIC) [8] | Compound
1 | +++ (MIC ≦ 4 μg/mL) | +++ (MIC ≦ 4 μg/mL) | +++ (MIC ≦ 4 μg/mL) | +++ (MIC ≦ 4 μg/mL) | +++ (MIC ≦ 4 μg/mL) | >32 | >32 mg/L | +++ (MIC ≦ 4 μg/mL) | CC(C)N1CCN(CCNC(=O)c2nc(NC(=O)c3ccc(NC(=O)c4cc(NC(=O)c5cc6ccccc6cn5)cn4C)cc3)cn2C)CC1 [Compound A-15]
2 | +++ (MIC ≦ 4 μg/mL) | +++ (MIC ≦ 4 μg/mL) | +++ (MIC ≦ 4 μg/mL) | +++ (MIC ≦ 4 μg/mL) | +++ (MIC ≦ 4 μg/mL) | >32 | >32 mg/L | +++ (MIC ≦ 4 μg/mL) | Cn1cc(NC(=O)c2cc3ccccc3cn2)cc1C(=O)Nc1ccc(C(=O)Nc2cn(C)c(C(=O)NCCN3CCCC3CO)n2)cc1 (centres unmarked) [Compound A-81]
3 | +++ (MIC ≦ 4 μg/mL) | +++ (MIC ≦ 4 μg/mL) | +++ (MIC ≦ 4 μg/mL) | +++ (MIC ≦ 4 μg/mL) | +++ (MIC ≦ 4 μg/mL) | >32 | >32 mg/L | +++ (MIC ≦ 4 μg/mL) | CCOC(=O)C1CCN(CCNC(=O)c2nc(NC(=O)c3ccc(NC(=O)c4cc(NC(=O)c5cc6ccccc6cn5)cn4C)cc3)cn2C)CC1 [Compound A-48]

Further lines, the molecule ahead of its results:

Row | Compound | Minimum Inhibitory Concentration (MIC) [1] | Minimum Inhibitory Concentration (MIC) [2] | Minimum Inhibitory Concentration (MIC) [3] | Minimum Inhibitory Concentration (MIC) [4] | Minimum Inhibitory Concentration (MIC) [5] | Minimum Inhibitory Concentration (MIC) [6] [mg/L] | Minimum Inhibitory Concentration (MIC) [7] | Minimum Inhibitory Concentration (MIC) [8]
4 | Cn1cc(NC(=O)c2cc3ccccc3cn2)cc1C(=O)Nc1ccc(C(=O)Nc2cn(C)c(C(=O)NCCN3CCN(CCOC(=O)CNC(=O)OC(C)(C)C)CC3)n2)cc1 [Compound A-61] | +++ (MIC ≦ 4 μg/mL) | +++ (MIC ≦ 4 μg/mL) | +++ (MIC ≦ 4 μg/mL) | +++ (MIC ≦ 4 μg/mL) | +++ (MIC ≦ 4 μg/mL) | >32 | >32 mg/L | +++ (MIC ≦ 4 μg/mL)
5 | Cn1cc(NC(=O)c2cc3ccccc3cn2)cc1C(=O)Nc1ccc(C(=O)Nc2cn(C)c(C(=O)NCCN3CCN(CCOC(=O)CNS(=O)(=O)O)CC3)n2)cc1 [Compound A-73] | +++ (MIC ≦ 4 μg/mL) | +++ (MIC ≦ 4 μg/mL) | +++ (MIC ≦ 4 μg/mL) | +++ (MIC ≦ 4 μg/mL) | +++ (MIC ≦ 4 μg/mL) | >32 | >32 mg/L | >32 mg/L
6 | COCCCNCCNC(=O)c1nc(NC(=O)c2ccc(NC(=O)c3cc(NC(=O)c4cc5ccccc5cn4)cn3C)cc2)cn1C [Compound A-39] | +++ (MIC ≦ 4 μg/mL) | +++ (MIC ≦ 4 μg/mL) | +++ (MIC ≦ 4 μg/mL) | +++ (MIC ≦ 4 μg/mL) | +++ (MIC ≦ 4 μg/mL) | >32 | >32 mg/L | >32 mg/L
7 | Cn1cc(NC(=O)c2cc3ccccc3cn2)cc1C(=O)Nc1ccc(C(=O)Nc2cn(C)c(C(=O)NCCN3CCC(OC(=O)CCN(CCO)CCO)CC3)n2)cc1 [Compound A-57] | +++ (MIC ≦ 4 μg/mL) | +++ (MIC ≦ 4 μg/mL) | +++ (MIC ≦ 4 μg/mL) | +++ (MIC ≦ 4 μg/mL) | +++ (MIC ≦ 4 μg/mL) | >32 | ++ (4 < MIC < 12 μg/mL) | +++ (MIC ≦ 4 μg/mL)
